Patent US12479794B2, “Acetophenone oxime compound and application thereof” (Medshine Discovery Inc., priority 2020, dated 2025)
pEC50: −log10 of the molar value. Marks after values point to notes of the source that are not given here.

Assays:
S1P1 = target: T1, S1P1 (Homo sapiens, UniProt P21453); assay: In vitro agonistic activity on S1P1, U2OS-EDG1 cells, LiveBLAzer FRET B/G; assay type: cell-based
T1 construct: host or cells: U2OS
Description: Assay Example 1: In Vitro Evaluation of the Agonistic Activity of the Compounds of the Present Disclosure on S1P1
Object of the assay: To detect the agonistic activity of compounds on S1P1
• 1. Cells U2OS-EDG1 (Batch No.: Invitrogen-K1520) were taken out of a liquid nitrogen tank and placed in a 37° C. water bath to thaw quickly; • 2. The cell suspension was aspirated into a 15 ml centrifuge tube, resuspended in 5 ml of preheated medium, and centrifuged at 1000 rpm for 5 min; • 3. The supernatant was discarded. The cells were resuspended in 10 ml of medium, transferred into a T75 culture flask, and cultivated in an incubator with 5% CO2 at 37° C. II. Agonist Assay • 1. The compounds were diluted to working concentrations, and serially diluted 3-fold by Echo 555 (manufacturer: Labcyte) to obtain 10 concentrations; 200 nL of each concentration of the compound was transferred to a cell plate and centrifuged at 1000 rpm for 15 seconds; • 2. Culture medium was aspirated from the culture flask; 4 mL of Dulbecco's phosphate buffer (DPBS, supplier: Coring, item No.: 21-031-CVR, batch No.: 03318006) was added, and the residual serum was washed away; 2 mL of trypsin was added; The mixture was incubated in an incubator at 37° C. for 2 min, and the cells were digested; 10 mL of seeding medium was added to resuspend the cells; 0.6 mL of cell suspension was taken out and counted; • 3. The density of cells was adjusted to 1.88E+05 cells/mL using seeding medium, with 40 μL per well (7500\well); 40 μL of FreeStyle™ Expression medium was added around the cell plate; The plate was let stand at room temperature for 15 min and incubated at 37° C. with 5% CO2 for 20 hours. III. Signal Detection • 1. LiveBLAzer™-FRET B/G Substrate (CCF4-AM) assay reagents were formulated according to the instructions; • 2. 8 μL of 6×Substrate Mixture was added to each well of the cell plate; The plate was centrifuged at 1000 rpm for 15 seconds, covered with a film, and incubated at 23° C. for 2 hours; The cell plate was subjected to Envision […] detection. IV. Data Analysis • 1. The raw data were converted into % Effect by using an equation, and the EC50 value can be obtained by curve fitting with four parameters [“log(agonist) vs. response—Variable slope” model in GraphPad Prism]; • 2. Calculation formula: Ratio=(460 nm−blank)/(535 nm−blank) % Effect=(SampleRatio−Ave LCRatio)/(Ave HCRatio−Ave LCRatio)×100%

[1] = Pharmacokinetic evaluation in SD rats (iv and oral); assay type: in vivo, Sprague Dawley rats; conditions: 1 mg/kg
Description: Assay Example 2: Pharmacokinetic Evaluation of Compounds in Rats
Object of the assay: To evaluate the in vivo pharmacokinetics of the compounds in SD rats
Sprague Dawley rats (male, 200-300 g, 7-9 weeks old, Shanghai SLAC)
The pharmacokinetic characteristics of the compounds in rodents after intravenous injection and oral administration were assayed according to the standard protocol. In the assay, the candidate compounds were formulated into clear solutions and administered to rats by single intravenous injection and oral administration. The vehicle for intravenous injection and oral administration was DMSO and 10% hydroxypropyl β-cyclodextrin in water (DMSO:10% hydroxypropyl β-cyclodextrin in water=5:95). Whole blood samples were collected within 48 hours, and centrifuged at 3000 g for 15 minutes. The supernatant was separated to give plasma samples. 4 times the volume of acetonitrile solution containing internal standard was added to precipitate protein. The resulting mixture was centrifuged and the supernatant was taken out. An equal volume of water was added and the mixture was centrifuged. The supernatant was taken out, and injected as a sample to quantitatively analyze the plasma drug concentration by LC-MS/MS analysis method. The pharmacokinetic parameters, such as peak concentration, time to peak, clearance rate, half-life, area under drug-time curve, bioavailability, etc., were calculated.

S1P2 = target: T2, S1P2 (Homo sapiens, UniProt O95136); assay: In vitro agonistic activity on S1P2, PathHunter cell line; assay type: cell-based; conditions: PathHunter cells
T2 construct: expressed in transfected cells
T2 sequence (O95136 whole entry): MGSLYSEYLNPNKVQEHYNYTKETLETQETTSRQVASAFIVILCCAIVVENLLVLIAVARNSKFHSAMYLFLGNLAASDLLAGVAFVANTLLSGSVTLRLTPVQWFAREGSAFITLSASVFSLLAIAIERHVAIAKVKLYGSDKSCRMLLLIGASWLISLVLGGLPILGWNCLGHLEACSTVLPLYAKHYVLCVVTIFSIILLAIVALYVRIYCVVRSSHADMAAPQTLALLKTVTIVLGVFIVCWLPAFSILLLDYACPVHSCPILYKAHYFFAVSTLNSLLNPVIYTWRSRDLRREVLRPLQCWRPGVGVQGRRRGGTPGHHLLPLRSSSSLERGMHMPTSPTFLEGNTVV
Description: (§1) Assay Example 5: In Vitro Evaluation of the Agonistic Activity of the Compound of the Present Disclosure on S1P2, S1P3 and S1P4
(§2) Object of the assay: To detect the agonistic activity of the compound on S1P2, S1P3, and S1P4
(§3) • 1. PathHunter cell line was expanded from freezer according to standard procedures. • 2. Cells were seeded into a white 384-well microplate in a total volume of 20 μL and incubated at 37° C. for an appropriate time prior to testing. II. Agonist Assay • 1. For the agonist assay, cells were incubated with a sample to induce a response. • 2. Stock solution was stored in a buffer at a concentration of 5 times the concentration to be tested. • 3. 5 μl of the stock solution sample at a concentration of 5 times the concentration to be tested was added to the cells and incubated at 37° C. or room temperature for 90-180 min with a vehicle concentration of 1%. III. Signal Detection • 1. […] Chemiluminescent Signal detection was performed using a PerkinElmer Envision™ instrument, and the microplate was read after signal generation. […] The activity of the compound was analyzed using the CBIS data analysis suite (ChemInnovation, CA). • 2. For the agonist mode assay, the percent activity was calculated using the following formula: % Activity=100%×(Mean RLU of the Assay Sample−Mean RLU of the Blank Control)/(Mean MAX Control Ligand−Mean RLU of the Blank Control).

S1P4 = target: T3, S1P4 (Homo sapiens, UniProt O95977); assay: In vitro agonistic activity on S1P4, PathHunter cell line; assay type: cell-based; conditions: PathHunter cells
T3 construct: expressed in transfected cells
T3 sequence (O95977 1-384): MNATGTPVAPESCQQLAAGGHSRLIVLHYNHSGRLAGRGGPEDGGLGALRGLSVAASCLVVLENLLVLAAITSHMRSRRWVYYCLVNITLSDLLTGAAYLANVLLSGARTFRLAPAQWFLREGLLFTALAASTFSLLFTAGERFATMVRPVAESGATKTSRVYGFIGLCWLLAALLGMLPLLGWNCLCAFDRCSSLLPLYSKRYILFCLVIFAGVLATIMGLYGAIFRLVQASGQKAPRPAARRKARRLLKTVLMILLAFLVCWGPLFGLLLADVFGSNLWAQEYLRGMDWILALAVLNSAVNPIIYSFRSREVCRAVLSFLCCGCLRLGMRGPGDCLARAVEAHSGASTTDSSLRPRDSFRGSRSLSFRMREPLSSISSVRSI
Description: as §1, §2, §3

T1 sequence (P21453 whole entry): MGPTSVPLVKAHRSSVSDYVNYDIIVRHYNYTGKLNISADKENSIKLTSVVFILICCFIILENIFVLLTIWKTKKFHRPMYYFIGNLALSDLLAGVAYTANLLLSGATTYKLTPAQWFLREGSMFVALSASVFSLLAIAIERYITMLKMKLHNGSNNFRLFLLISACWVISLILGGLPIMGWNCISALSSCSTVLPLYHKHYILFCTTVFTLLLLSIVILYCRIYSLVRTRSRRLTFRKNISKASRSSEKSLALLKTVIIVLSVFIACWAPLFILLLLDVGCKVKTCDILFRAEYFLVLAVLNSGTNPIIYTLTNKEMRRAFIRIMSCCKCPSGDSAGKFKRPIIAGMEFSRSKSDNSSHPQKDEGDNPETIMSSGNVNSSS

pEC50 (S1P1): 8.94
Emax of agonistic activity on S1P1 (S1P1; % Effect): nM, 103.4%
Half life T1/2 (PO) ([1]; iv 1.0 mg/kg only (head prints PO)): 8.3 h
Area under drug-time curve AUC0-last iv ([1]; iv 1.0 mg/kg): 7483* nM · hr
Clearance rate CL ([1]; iv 1.0 mg/kg): 3.97 mL/min/kg
Distribution in tissue Vdss ([1]; iv 1.0 mg/kg): 2.7 L/kg
pEC50 (S1P2): < 6.52
pEC50 (S1P4): < 6.52
Structure (SMILES): CC(=NOCc1ccc(OC(C)C)c(C(F)(F)F)c1)c1ccc2c(c1)CCC2N1CC(C(=O)O)C1 (single isomer, unassigned) [Compound 32B]
